From patent US10160747B2, “Compounds and methods for kinase modulation, and indications therefor” (Plexxikon Inc., priority 2016, dated 2018) come the findings set out here.

One assay has as its target T1, FLT3-D835Y (Homo sapiens, UniProt P36888, D835Y).
T1 construct: purchased Invitrogen PV3967
T1 sequence (P36888 27-993 D835Y): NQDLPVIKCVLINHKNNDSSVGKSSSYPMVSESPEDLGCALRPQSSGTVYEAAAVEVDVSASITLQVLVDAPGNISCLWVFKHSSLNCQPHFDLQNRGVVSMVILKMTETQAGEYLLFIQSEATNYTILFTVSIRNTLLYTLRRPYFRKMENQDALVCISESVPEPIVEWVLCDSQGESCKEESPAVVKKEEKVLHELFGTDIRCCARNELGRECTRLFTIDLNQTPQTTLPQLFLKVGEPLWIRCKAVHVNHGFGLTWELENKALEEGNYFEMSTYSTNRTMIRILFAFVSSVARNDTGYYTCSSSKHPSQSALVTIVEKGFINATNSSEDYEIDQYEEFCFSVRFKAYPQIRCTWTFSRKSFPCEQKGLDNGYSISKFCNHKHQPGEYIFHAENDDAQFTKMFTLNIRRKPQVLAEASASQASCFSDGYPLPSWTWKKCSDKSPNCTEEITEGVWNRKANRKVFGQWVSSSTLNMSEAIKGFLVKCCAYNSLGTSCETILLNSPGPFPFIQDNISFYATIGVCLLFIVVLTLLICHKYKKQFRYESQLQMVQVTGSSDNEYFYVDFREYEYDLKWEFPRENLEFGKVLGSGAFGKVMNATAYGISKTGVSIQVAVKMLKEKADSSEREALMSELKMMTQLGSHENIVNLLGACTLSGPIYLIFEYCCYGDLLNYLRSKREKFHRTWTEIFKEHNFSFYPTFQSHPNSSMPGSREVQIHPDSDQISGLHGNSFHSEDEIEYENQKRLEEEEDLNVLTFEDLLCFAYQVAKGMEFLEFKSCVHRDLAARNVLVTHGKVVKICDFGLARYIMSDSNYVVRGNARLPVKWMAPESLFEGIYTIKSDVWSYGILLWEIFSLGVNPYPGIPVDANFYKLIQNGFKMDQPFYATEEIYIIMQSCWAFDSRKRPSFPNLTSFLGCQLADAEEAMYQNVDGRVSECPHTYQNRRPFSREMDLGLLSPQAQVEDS
In words: FLT3-D835Y recombinant enzyme kinase assay (AlphaScreen). In kind it is biochemical. The settings on record: 8 pt, GMean. An outline of the steps: (§1)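 Enzyme plus biotinylated poly(Glu4-Tyr) substrate (30 nM) mixed with compound, then ATP added. Donor beads went in for 20 min at room temperature, then PY20 acceptor beads for 60 min. AlphaScreen read; ATP was 10 μM for FLT3-ITD/D835Y and 100 μM for c-KIT.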
Background: Bead proximity is the source of the signal in Alpha formats.

The target of a further assay is T2, c-KIT (Homo sapiens, UniProt P10721).
T2 construct: purchased Millipore 14-559K
T2 sequence (P10721 26-976): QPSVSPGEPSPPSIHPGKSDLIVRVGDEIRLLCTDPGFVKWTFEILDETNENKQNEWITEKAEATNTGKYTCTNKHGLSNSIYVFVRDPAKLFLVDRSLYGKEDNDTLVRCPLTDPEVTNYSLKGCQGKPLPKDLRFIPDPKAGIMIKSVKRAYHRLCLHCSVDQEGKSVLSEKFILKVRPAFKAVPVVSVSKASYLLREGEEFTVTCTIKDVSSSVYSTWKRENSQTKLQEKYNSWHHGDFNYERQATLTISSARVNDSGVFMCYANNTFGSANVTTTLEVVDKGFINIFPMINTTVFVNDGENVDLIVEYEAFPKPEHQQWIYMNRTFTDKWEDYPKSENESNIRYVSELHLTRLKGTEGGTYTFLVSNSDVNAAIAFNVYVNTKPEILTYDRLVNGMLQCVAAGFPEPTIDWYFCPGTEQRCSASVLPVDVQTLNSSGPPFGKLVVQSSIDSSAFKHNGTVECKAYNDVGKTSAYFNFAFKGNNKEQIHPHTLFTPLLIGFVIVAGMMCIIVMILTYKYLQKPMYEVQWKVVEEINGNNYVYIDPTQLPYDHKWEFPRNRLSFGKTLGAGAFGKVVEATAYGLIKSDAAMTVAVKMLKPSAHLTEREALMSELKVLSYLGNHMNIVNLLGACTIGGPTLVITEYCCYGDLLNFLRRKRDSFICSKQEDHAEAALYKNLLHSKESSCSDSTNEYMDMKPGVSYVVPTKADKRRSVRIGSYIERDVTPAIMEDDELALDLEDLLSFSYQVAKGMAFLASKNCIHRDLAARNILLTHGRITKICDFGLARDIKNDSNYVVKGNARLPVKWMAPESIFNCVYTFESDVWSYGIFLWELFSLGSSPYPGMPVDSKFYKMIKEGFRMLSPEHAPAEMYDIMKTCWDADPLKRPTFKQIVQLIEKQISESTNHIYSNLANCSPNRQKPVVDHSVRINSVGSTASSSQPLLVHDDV
As to the kind of experiment: c-KIT recombinant enzyme kinase assay (AlphaScreen). The settings on record: 100 ATP, 8 pt. In kind it is biochemical. The essentials: as §1

With `COCCn1cc(Nc2ncc(-c3ccc(CC(=O)Nc4cncc(C(F)(F)F)c4)cc3)cn2)cn1` [Compound P-0178, 2-[4-[2-[[1-(2-methoxyethyl)pyrazol-4-yl]amino]pyrimidin-5-yl]phenyl]-N-[5-(trifluoromethyl)-3-pyridyl]acetamide], the IC50 at FLT3-D835Y and on c-KIT was 0.0001 to 10 µM throughout.

Turning to `Cn1cnc(Nc2ncc(-c3ccc(CC(=O)Nc4cc(C(F)(F)F)ccn4)c(F)c3)cn2)c1` [Compound P-0096, 2-[2-fluoro-4-[2-[(1-methylimidazol-4-yl)amino]pyrimidin-5-yl]phenyl]-N-[4-(trifluoromethyl)-2-pyridyl]acetamide], the 50% inhibitory concentration (IC50) on FLT3-D835Y and on c-KIT was 0.0001 to 10 µM each time.

Take `Cn1cc(Nc2ncc(-c3ccc(CC(=O)Nc4cccnc4)cc3)cn2)cn1` [Compound P-0131, 2-[4-[2-[(1-methylpyrazol-4-yl)amino]pyrimidin-5-yl]phenyl]-N-(3-pyridyl)acetamide]: the IC50 on FLT3-D835Y and on c-KIT was 0.0001 to 10 µM in each case.

On to `Cn1cc(Nc2ncc(-c3ccc(CC(=O)Nc4cc(C(F)(F)F)ccn4)cc3)cn2)cn1` [Compound P-0139, 2-[4-[2-[(1-methylpyrazol-4-yl)amino]pyrimidin-5-yl]phenyl]-N-[4-(trifluoromethyl)-2-pyridyl]acetamide], for which the IC50 on FLT3-D835Y and at c-KIT was 0.0001 to 10 µM each time.

Regarding `COc1ncc(NC(=O)Cc2ccc(-c3cnc(Nc4cn(C)cn4)nc3)cc2F)cc1C(F)(F)F` [Compound P-0101, 2-[2-fluoro-4-[2-[(1-methylimidazol-4-yl)amino]pyrimidin-5-yl]phenyl]-N-[6-methoxy-5-(trifluoromethyl)-3-pyridyl]acetamide], the IC50 at FLT3-D835Y and at c-KIT was 0.0001 to 10 µM throughout.

Take `Cn1cc(Nc2ncc(-c3ccc(CC(=O)Nc4cccc(C(F)(F)F)n4)cc3)cn2)cn1` [Compound P-0152, 2-[4-[2-[(1-methylpyrazol-4-yl)amino]pyrimidin-5-yl]phenyl]-N-[6-(trifluoromethyl)-2-pyridyl]acetamide]: the IC50 on FLT3-D835Y and on c-KIT was 0.0001 to 10 µM each time.

Regarding `Cn1cc(Nc2ncc(-c3ccc(CC(=O)Nc4ccc(S(C)(=O)=O)cc4)cc3)cn2)cn1` [Compound P-0156, 2-[4-[2-[(1-methylpyrazol-4-yl)amino]pyrimidin-5-yl]phenyl]-N-(4-methylsulfonylphenyl)acetamide], the IC50 at FLT3-D835Y and on c-KIT was 0.0001 to 10 µM throughout.

In the case of `Cn1cc(Nc2ncc(-c3ccc(CC(=O)Nc4cccc(C(F)(F)F)c4)cc3)cn2)cn1` [Compound P-0141, 2-[4-[2-[(1-methylpyrazol-4-yl)amino]pyrimidin-5-yl]phenyl]-N-[3-(trifluoromethyl)phenyl]acetamide], the half-inhibitory concentration (IC50) at FLT3-D835Y and on c-KIT was 0.0001 to 10 µM in each case.

In the case of `COc1nn(C[C@H](C)O)cc1Nc1ncc(-c2ccc(CC(=O)Nc3cnc(C)c(C(F)(F)F)c3)cc2)cn1` [Compound P-0180, 2-[4-[2-[[1-[(2S)-2-hydroxypropyl]-3-methoxy-pyrazol-4-yl]amino]pyrimidin-5-yl]phenyl]-N-[6-methyl-5-(trifluoromethyl)-3-pyridyl]acetamide], the IC50 at FLT3-D835Y and at c-KIT was 0.0001 to 10 µM in each case.

On to `Cn1cc(Nc2ncc(-c3ccc(CC(=O)NCc4cncc(C(F)(F)F)c4)cc3)cn2)cn1` [Compound P-0161, 2-[4-[2-[(1-methylpyrazol-4-yl)amino]pyrimidin-5-yl]phenyl]-N-[[5-(trifluoromethyl)-3-pyridyl]methyl]acetamide], for which the IC50 on FLT3-D835Y and at c-KIT was 0.0001 to 10 µM each time.

As for `Cn1cnc(Nc2ncc(-c3ccc(CC(=O)Nc4cc(C(C)(F)F)ccn4)cc3)cn2)c1` [Compound P-0169, N-[4-(1,1-difluoroethyl)-2-pyridyl]-2-[4-[2-[(1-methylimidazol-4-yl)amino]pyrimidin-5-yl]phenyl]acetamide], the IC50 at FLT3-D835Y and on c-KIT was 0.0001 to 10 µM in each case.

As for `CCc1cncc(NC(=O)Cc2ccc(-c3cnc(Nc4cnn(C)c4)nc3)cc2F)c1` [Compound P-0111, N-(5-ethyl-3-pyridyl)-2-[2-fluoro-4-[2-[(1-methylpyrazol-4-yl)amino]pyrimidin-5-yl]phenyl]acetamide], the IC50 at FLT3-D835Y and on c-KIT was 0.0001 to 10 µM each time.

With `Cc1n[nH]c2ncc(-c3ccc(CC(=O)Nc4cncc(C(F)(F)F)c4)cc3F)cc12` [Compound P-0177, 2-[3-fluoro-4-(3-methyl-1H-pyrazolo[3,4-b]pyridin-5-yl)phenyl]-N-[5-(trifluoromethyl)-3-pyridyl]acetamide], the IC50 at FLT3-D835Y and at c-KIT was 0.0001 to 10 µM each time.

With `O=C(Cc1ccc(-c2cnc3[nH]c(-c4ccc(N5CCOCC5)nc4)cc3c2)cn1)Nc1ccnc(C(F)(F)F)c1` [Compound P-0183, 2-[5-[2-(6-morpholino-3-pyridyl)-1H-pyrrolo[2,3-b]pyridin-5-yl]-2-pyridyl]-N-[2-(trifluoromethyl)-4-pyridyl]acetamide], the half-inhibitory concentration (IC50) at FLT3-D835Y and at c-KIT was 0.0001 to 10 µM throughout.

Regarding `O=C(Cc1ccc(-c2cnc3[nH]c(-c4ccccc4)cc3c2)cn1)Nc1ccnc(C(F)(F)F)c1` [Compound P-0005, 2-[5-(2-phenyl-1H-pyrrolo[2,3-b]pyridin-5-yl)-2-pyridyl]-N-[2-(trifluoromethyl)-4-pyridyl]acetamide], the IC50 at FLT3-D835Y and on c-KIT was 0.0001 to 10 µM each time.

`Cn1cnc(Nc2ncc(-c3ccc(CC(=O)Nc4cnc(F)c(C(C)(F)F)c4)cc3)cn2)c1` [Compound P-0168, N-[5-(1,1-difluoroethyl)-6-fluoro-3-pyridyl]-2-[4-[2-[(1-methylimidazol-4-yl)amino]pyrimidin-5-yl]phenyl]acetamide]: the IC50 on FLT3-D835Y and at c-KIT was 0.0001 to 10 µM each time.

Turning to `Cn1cc(Nc2ncc(-c3ccc(CC(=O)Nc4cncc(C(F)(F)F)c4)cc3)cn2)cn1` [Compound P-0136, 2-[4-[2-[(1-methylpyrazol-4-yl)amino]pyrimidin-5-yl]phenyl]-N-[5-(trifluoromethyl)-3-pyridyl]acetamide], the IC50 on FLT3-D835Y and on c-KIT was 0.0001 to 10 µM throughout.

For the molecule `O=C(Cc1ccc(-c2cnc3[nH]c(-c4ccnc(N5CCOCC5)c4)cc3c2)cn1)Nc1ccnc(C(F)(F)F)c1` [Compound P-0181, 2-[5-[2-(2-morpholino-4-pyridyl)-1H-pyrrolo[2,3-b]pyridin-5-yl]-2-pyridyl]-N-[2-(trifluoromethyl)-4-pyridyl]acetamide], the IC50 at FLT3-D835Y and at c-KIT was 0.0001 to 10 µM in each case.

Regarding `Cc1n[nH]c2ncc(-c3cc(F)c(CC(=O)Nc4cncc(C(F)(F)F)c4)cc3F)cc12` [Compound P-0173, 2-[2,5-difluoro-4-(3-methyl-1H-pyrazolo[3,4-b]pyridin-5-yl)phenyl]-N-[5-(trifluoromethyl)-3-pyridyl]acetamide], the IC50 at FLT3-D835Y and at c-KIT was 0.0001 to 10 µM in each case.

Turning to `Cn1cnc(Nc2ncc(-c3ccc(CC(=O)Nc4cnc(F)c(C(C)(F)F)c4)cc3F)cn2)c1` [Compound P-0170, N-[5-(1,1-difluoroethyl)-6-fluoro-3-pyridyl]-2-[3-fluoro-4-[2-[(1-methylimidazol-4-yl)amino]pyrimidin-5-yl]phenyl]acetamide], the IC50 at FLT3-D835Y and on c-KIT was 0.0001 to 10 µM throughout.

For the molecule `Cn1cc(Nc2ncc(-c3ccc(CC(=O)Nc4ccc(C(F)(F)F)c(F)c4)cc3)cn2)cn1` [Compound P-0142, N-[3-fluoro-4-(trifluoromethyl)phenyl]-2-[4-[2-[(1-methylpyrazol-4-yl)amino]pyrimidin-5-yl]phenyl]acetamide], the IC50 at FLT3-D835Y and at c-KIT was 0.0001 to 10 µM in each case.

`Cn1cnc(Nc2ncc(-c3ccc(CC(=O)Nc4cnc(Cl)c(C(F)(F)F)c4)c(F)c3)cn2)c1` [Compound P-0100, N-[6-chloro-5-(trifluoromethyl)-3-pyridyl]-2-[2-fluoro-4-[2-[(1-methylimidazol-4-yl)amino]pyrimidin-5-yl]phenyl]acetamide]: the IC50 at FLT3-D835Y and on c-KIT was 0.0001 to 10 µM each time.

As to `Cn1cc(Nc2ncc(-c3ccc(CC(=O)Nc4ccnc(C(F)(F)F)c4)cc3)cn2)cn1` [Compound P-0134, 2-[4-[2-[(1-methylpyrazol-4-yl)amino]pyrimidin-5-yl]phenyl]-N-[2-(trifluoromethyl)-4-pyridyl]acetamide], the IC50 at FLT3-D835Y and at c-KIT was 0.0001 to 10 µM throughout.

As usually defined, the IC50 is the concentration that gives 50% inhibition.
